One experiment concerns the target human Gal-1 (hGal-1) (Homo sapiens, UniProt P09382, C131S/C17S/C43S/C61S/C89S). Description: Competitive binding assay: biotinylated hGal-1 binding to microplate-adsorbed asialofetuin (ASF). Particulars: IC50 values from several measurements given as geomean. As to the method: (§1) The inhibitory activity of compounds is determined in competitive binding assays. This spectrophotometric assay measures the binding of biotinylated human Gal-3 (hGal-3) or human Gal-1 (hGal-1), respectively, to a microplate-adsorbed glycoprotein, asialofetuin (ASF) (Proc Natl Acad Sci USA. 2013 Mar. 26; 110(13):5052-7.). Alternatively, and preferably, a human Gal-1 version in which all six cysteines are substituted by serines may be used.
(§2) Briefly, compounds are serially diluted in DMSO (working dilutions). ASF-coated 384well plates are supplemented with 22.8 μL/well of biotinylated hGal-3 or hGal-1 in assay buffer (i.e. 300-1000 ng/mL biotinylated hGal-3 or hGal-1) to which 1.2 μL of compound working dilutions are added and mixed.
(§3) Plates are incubated for 3 hours at 4° C., then washed with cold assay buffer (3×50 uL), incubated for 1 hour with 25 μL/well of a streptavidin-peroxidase solution (diluted in assay buffer to 80 ng/mL) at 4° C., followed by further washing steps with assay buffer (3×50 uL). Finally, 25 μL/well of ABTS substrate is added.
(§4) The calculated IC50 values may fluctuate depending on the daily assay performance. Fluctuations of this kind are known to those skilled in the art. IC50 values from several measurements are given as geomean values.

The target of another experiment is human Gal-3 (hGal-3) (Homo sapiens (Human), UniProt P17931). Briefly: Competitive binding assay: biotinylated hGal-3 binding to microplate-adsorbed asialofetuin (ASF). Particulars: IC50 values from several measurements given as geomean. The protocol: as §1, §2, §3, §4

The term IC50 denotes the concentration that inhibits the measured activity by half.

Molecules are shown by their SMILES.

Chain of human Gal-3 (hGal-3) (P17931 whole entry): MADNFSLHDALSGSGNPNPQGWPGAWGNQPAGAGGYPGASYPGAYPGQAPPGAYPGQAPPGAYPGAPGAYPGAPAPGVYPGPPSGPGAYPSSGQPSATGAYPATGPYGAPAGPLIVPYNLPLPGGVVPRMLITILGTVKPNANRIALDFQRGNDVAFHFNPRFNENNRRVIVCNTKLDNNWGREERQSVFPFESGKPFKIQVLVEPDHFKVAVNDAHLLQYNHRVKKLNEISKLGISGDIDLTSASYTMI

In the case of `CO[C@@H]1[C@@H](n2cc(-c3ccc(Cl)c(F)c3F)nn2)[C@@H](O)[C@@H](CO)O[C@@H]1Cc1cn([C@@H]2CCC[C@@H]2F)nn1` [Example 2.1.79.A, (2R,3R,4S,5R,6R)-4-(4-(4-chloro-2,3-difluorophenyl)-1H-1,2,3-triazol-1-yl)-6-((1-((1R,2S)-2-fluorocyclopentyl)-1H-1,2,3-triazol-4-yl)methyl)-2-(hydroxymethyl)-5-methoxytetrahydro-2H-pyran-3-ol], the IC50 was found to be 1510 nM at human Gal-1 (hGal-1) and 20 nM at human Gal-3 (hGal-3).

As for `CO[C@@H]1[C@@H](n2cc(-c3ccc(C)c(F)c3F)nn2)[C@@H](O)[C@@H](CO)O[C@@H]1Cc1cn(C2(C(F)(F)F)COC2)nn1` [Ex 1.1.58.], the IC50 came out at 800 nM at human Gal-1 (hGal-1) and 30 nM on human Gal-3 (hGal-3).

As to `CO[C@@H]1[C@@H](n2cc(-c3ccc(Cl)c(F)c3F)nn2)[C@@H](O)[C@@H](CO)O[C@@H]1Cc1cn([C@]2(C)CCO[C@@H]2C)nn1` (single isomer, unassigned) [Example 2.1.68.B, (2R,3R,4S,5R,6R)-4-(4-(4-chloro-2,3-difluorophenyl)-1H-1,2,3-triazol-1-yl)-6-((1-((2R*,3R*)-2,3-dimethyltetrahydrofuran-3-yl)-1H-1,2,3-triazol-4-yl)methyl)-2-(hydroxymethyl)-5-methoxytetrahydro-2H-pyran-3-ol], the IC50 was determined as 670 nM on human Gal-1 (hGal-1) and 20 nM on human Gal-3 (hGal-3).

For `CO[C@@H]1[C@@H](n2cc(-c3ccc(C)c(F)c3F)nn2)[C@@H](O)[C@@H](CO)O[C@@H]1Cc1cn([C@@H]2CCC[C@H]2O)nn1` [Ex 1.1.2.], the values for the IC50 on human Gal-1 (hGal-1) and at human Gal-3 (hGal-3) were 6460 nM and 40 nM, respectively.

With `CO[C@@H]1[C@@H](n2cc(-c3ccc(Br)c(F)c3F)nn2)[C@@H](O)[C@@H](CO)O[C@@H]1Cc1cn(C2(C(F)F)CC2)nn1` [Ex 4.1.51.], the figures for the IC50 on human Gal-1 (hGal-1) and on human Gal-3 (hGal-3) were 1290 nM and 30 nM, respectively.

For the compound `CO[C@@H]1[C@@H](n2cc(-c3ccc(C)c(F)c3F)nn2)[C@@H](O)[C@@H](CO)O[C@@H]1Cc1cn(C2(C(F)F)COC2)nn1` [Ex 1.1.53., (2R,3R,4S,5R,6R)-4-(4-(2,3-difluoro-4-methylphenyl)-1H-1,2,3-triazol-1-yl)-6-((1-(3-(difluoromethyl)oxetan-3-yl)-1H-1,2,3-triazol-4-yl)methyl)-2-(hydroxymethyl)-5-methoxytetrahydro-2H-pyran-3-ol], the IC50 on human Gal-1 (hGal-1) was determined as 520 nM; on human Gal-3 (hGal-3), 20 nM.

Consider `CO[C@@H]1[C@@H](n2cc(-c3ccc(Cl)c(F)c3F)nn2)[C@@H](O)[C@@H](CO)O[C@@H]1Cc1cn(C2(C(F)F)CCOC2)nn1` (single isomer, unassigned) [Example 2.1.78.B], for which the IC50 at human Gal-1 (hGal-1) worked out at 240 nM; at human Gal-3 (hGal-3), 20 nM.

As for `CO[C@@H]1[C@@H](n2cc(-c3ccc(Cl)c(F)c3F)nn2)[C@@H](O)[C@@H](CO)O[C@@H]1Cc1cn(C2(C(F)(F)F)CCOC2)nn1` (single isomer, unassigned) [Example 2.1.77.B], the IC50 stood at 590 nM at human Gal-1 (hGal-1) and 30 nM on human Gal-3 (hGal-3).

In the case of `CO[C@@H]1[C@@H](n2cc(-c3ccc(Cl)c(F)c3F)nn2)[C@@H](O)[C@@H](CO)O[C@@H]1Cc1cn(C(C)(C)C(F)F)nn1` [Ex 2.1.28.], the IC50 was 780 nM on human Gal-1 (hGal-1) and 40 nM on human Gal-3 (hGal-3).

For the compound `CO[C@@H]1[C@@H](n2cc(-c3ccc(F)c(F)c3F)nn2)[C@@H](O)[C@@H](CO)O[C@@H]1Cc1cn(C2(CF)CCC2)nn1` [Ex 3.1.40., (2R,3R,4S,5R,6R)-6-((1-(1-(fluoromethyl)cyclobutyl)-1H-1,2,3-triazol-4-yl)methyl)-2-(hydroxymethyl)-5-methoxy-4-(4-(2,3,4-trifluorophenyl)-1H-1,2,3-triazol-1-yl)tetrahydro-2H-pyran-3-ol], the results for the IC50 at human Gal-1 (hGal-1) and at human Gal-3 (hGal-3) were 260 nM and 70 nM, respectively.

In the case of `CO[C@@H]1[C@@H](n2cc(-c3ccc(C)c(F)c3F)nn2)[C@@H](O)[C@@H](CO)O[C@@H]1Cc1cn(C23CCC(O)(CC2)CC3)nn1` [Ex 1.1.8.], the IC50 is 4010 nM on human Gal-1 (hGal-1) and 50 nM on human Gal-3 (hGal-3).

Consider `CO[C@@H]1[C@@H](n2cc(-c3ccc(C)c(F)c3F)nn2)[C@@H](O)[C@@H](CO)O[C@@H]1Cc1cn(C2(C)CC(F)(F)C2)nn1` [Ex 1.1.15.], for which the figures for the IC50 on human Gal-1 (hGal-1) and on human Gal-3 (hGal-3) were 1760 nM and 30 nM, respectively.

On to `CO[C@@H]1[C@@H](n2cc(-c3ccc(Cl)c(F)c3F)nn2)[C@@H](O)[C@@H](CO)O[C@@H]1Cn1cc(C2(O)CC(F)(F)C2)nn1` [Ex 2.2.85.], for which the IC50 is 5400 nM on human Gal-1 (hGal-1) and 170 nM at human Gal-3 (hGal-3).

`CO[C@@H]1[C@@H](n2cc(-c3ccc(Cl)c(F)c3F)nn2)[C@@H](O)[C@@H](CO)O[C@@H]1Cc1cn(C2COCCC2(F)F)nn1` (single isomer, unassigned) [Example 2.1.73.B]: the figures for the IC50 on human Gal-1 (hGal-1) and at human Gal-3 (hGal-3) were 1200 nM and 60 nM, respectively.

In the case of `CO[C@@H]1[C@@H](n2cc(-c3ccc(Cl)c(F)c3F)nn2)[C@@H](O)[C@@H](CO)O[C@@H]1Cn1cc(C2CC3(C2)CC(F)(F)C3)nn1` [Ex 2.2.84.], the IC50 at human Gal-1 (hGal-1) is 11000 nM; at human Gal-3 (hGal-3) it was 240 nM.

For `CO[C@@H]1[C@@H](n2cc(-c3ccc(C)c(F)c3F)nn2)[C@@H](O)[C@@H](CO)O[C@@H]1Cc1cn([C@H]2CCC[C@@H]2O)nn1` [Ex 1.1.3.], the IC50 at human Gal-1 (hGal-1) came to 3150 nM; on human Gal-3 (hGal-3), 40 nM.

With `CO[C@@H]1[C@@H](n2cc(-c3ccc(Cl)c(F)c3F)nn2)[C@@H](O)[C@@H](CO)O[C@@H]1Cc1cn(C2(C(F)(F)F)CCC2)nn1` [Ex 2.1.55.], the values for the IC50 on human Gal-1 (hGal-1) and at human Gal-3 (hGal-3) were 620 nM and 20 nM, respectively.

Take `CO[C@@H]1[C@@H](n2cc(-c3ccc(Cl)c(F)c3F)nn2)[C@@H](O)[C@@H](CO)O[C@@H]1Cn1cc(C2(CO)CC2)nn1` [Ex 2.2.4.]: the IC50 at human Gal-1 (hGal-1) is 1480 nM; at human Gal-3 (hGal-3) it was 50 nM.

For the compound `CO[C@@H]1[C@@H](n2cc(-c3ccc(Br)c(F)c3F)nn2)[C@@H](O)[C@@H](CO)O[C@@H]1Cc1cn([C@@H]2CCCC2(F)F)nn1` [Example 4.1.64.A, (2R,3R,4S,5R,6R)-4-(4-(4-bromo-2,3-difluorophenyl)-1H-1,2,3-triazol-1-yl)-6-((1-((R)-2,2-difluorocyclopentyl)-1H-1,2,3-triazol-4-yl)methyl)-2-(hydroxymethyl)-5-methoxytetrahydro-2H-pyran-3-ol], the results for the IC50 on human Gal-1 (hGal-1) and at human Gal-3 (hGal-3) were 1740 nM and 30 nM, respectively.

In the case of `COCC1(n2cc(C[C@H]3O[C@H](CO)[C@H](O)[C@H](n4cc(-c5ccc(Cl)c(F)c5F)nn4)[C@H]3OC)nn2)COC1` [Ex 2.1.21.], the IC50 on human Gal-1 (hGal-1) is 900 nM; on human Gal-3 (hGal-3), 50 nM.

As for `CO[C@@H]1[C@@H](n2cc(-c3ccc(Br)c(F)c3F)nn2)[C@@H](O)[C@@H](CO)O[C@@H]1Cn1cc(C2(O)CCCC2)nn1` [Ex 4.2.33.], the IC50 at human Gal-1 (hGal-1) is 4110 nM; at human Gal-3 (hGal-3), 100 nM.

On to `CO[C@@H]1[C@@H](n2cc(-c3ccc(Br)c(F)c3F)nn2)[C@@H](O)[C@@H](CO)O[C@@H]1Cc1cn(C2(C(F)F)COC2)nn1` [Ex 4.1.53.], for which the IC50 was determined as 650 nM on human Gal-1 (hGal-1) and 20 nM at human Gal-3 (hGal-3).

Take `CO[C@@H]1[C@@H](n2cc(-c3ccc(Cl)c(F)c3F)nn2)[C@@H](O)[C@@H](CO)O[C@@H]1Cc1cn(C2(C(F)F)CC2)nn1` [Ex 2.1.51., (2R,3R,4S,5R,6R)-4-(4-(4-chloro-2,3-difluorophenyl)-1H-1,2,3-triazol-1-yl)-6-((1-(1-(difluoromethyl)cyclopropyl)-1H-1,2,3-triazol-4-yl)methyl)-2-(hydroxymethyl)-5-methoxytetrahydro-2H-pyran-3-ol]: the figures for the IC50 at human Gal-1 (hGal-1) and on human Gal-3 (hGal-3) were 830 nM and 20 nM, respectively.

In the case of `CO[C@@H]1[C@@H](n2cc(-c3ccc(F)c(F)c3F)nn2)[C@@H](O)[C@@H](CO)O[C@@H]1Cn1cc(C23CCC(NC(=O)OC(C)(C)C)(CC2)CC3)nn1` [Ex 3.2.37.], the results for the IC50 on human Gal-1 (hGal-1) and on human Gal-3 (hGal-3) were 1720 nM and 40 nM, respectively.

With `CO[C@@H]1[C@@H](n2cc(-c3ccc(F)c(F)c3F)nn2)[C@@H](O)[C@@H](CO)O[C@@H]1Cc1cn(C2(C(F)(F)F)CC2)nn1` [Ex 3.1.54.], the IC50 was 280 nM at human Gal-1 (hGal-1) and 50 nM on human Gal-3 (hGal-3).

Turning to `CO[C@@H]1[C@@H](n2cc(-c3ccc(Cl)c(F)c3F)nn2)[C@@H](O)[C@@H](CO)O[C@@H]1Cc1cn([C@H]2CCCC[C@@H]2F)nn1` [Example 2.1.81.D, (2R,3R,4S,5R,6R)-4-(4-(4-chloro-2,3-difluorophenyl)-1H-1,2,3-triazol-1-yl)-6-((1-((1S,2S)-2-fluorocyclohexyl)-1H-1,2,3-triazol-4-yl)methyl)-2-(hydroxymethyl)-5-methoxytetrahydro-2H-pyran-3-ol], the figures for the IC50 on human Gal-1 (hGal-1) and at human Gal-3 (hGal-3) were 2180 nM and 60 nM, respectively.

Consider `CO[C@@H]1[C@@H](n2cc(-c3ccc(Br)c(F)c3F)nn2)[C@@H](O)[C@@H](CO)O[C@@H]1Cn1cc(C2(C)COC2)nn1` [Ex 4.2.6.], for which the IC50 at human Gal-1 (hGal-1) worked out at 2530 nM; on human Gal-3 (hGal-3), 70 nM.

Regarding `CO[C@@H]1[C@@H](n2cc(-c3ccc(C)c(F)c3F)nn2)[C@@H](O)[C@@H](CO)O[C@@H]1Cc1cn(C2(CCO)COC2)nn1` [Ex 1.1.22.], the figures for the IC50 at human Gal-1 (hGal-1) and at human Gal-3 (hGal-3) were 690 nM and 40 nM, respectively.

(Values after patent US20240109930A1, “TRIAZOLYL-METHYL SUBSTITUTED ALPHA-D-GALACTOPYRANOSIDE DERIVATIVES” (Idorsia Pharmaceuticals Ltd, priority 2021, published 2024).)
